Laboratory results reported in patent US12479827B2, “Heteroaromatic carboxamide derivatives as plasma kallikrein inhibitors” (Boehringer Ingelheim International GmbH, priority 2020, dated 2025).
Peptide text beside a SMILES is read from it. * marks the point of attachment. AMC = Cc1cc(=O)oc2cc(N*)ccc12

Target: T1, Human PKK (Homo sapiens, UniProt P03952)
T1 construct: purchased Enzyme Research Laboratories
Assay: Inhibition of PKK (Ki)
Type: biochemical
Conditions: substrate KM, enzyme PKK
Description: The ability of compounds of formula (I) to inhibit plasma kallikrein (PKK), Factor XIIa (FXIIa), Factor XIa (FXIa), Factor Xa (FXa), Factor IIa (alpha-thrombin; FIIa), plasmin, trypsin, tissue kallikrein 1 (TK1), Factor VIIa (FVIIa), or FVIIa complexed with Tissue Factor, phospholipids and CaCl2 (FVIIa/TF/PL/CaCl2) is determined using the following biochemical assays in assay buffer (100 mM Tris, 150 mM NaCL, adjusted to a pH of 7.8 with HCl, and containing 0.1% (w/v) BSA and 0.05% (v/v) Tween20) in the presence of 1% (v/v) DMSO:
Human PKK (1.78 nM or 0.025 U/mL; Enzyme Research Laboratories) is incubated at 24° C. with 0.25 mM fluorogenic substrate H-Pro-Phe-Arg-AMC (11295 from Bachem) and various concentrations of the test compound in assay buffer. Measurements are performed in a kinetic interval every 2nd minute for 16 min using a Spectramax M5 (Molecular Devices) with the following settings of the wavelength excitation of 350 nm and wavelength emission of 450 nm.
The pIC50 values are then fitted using a four-parametric fitting procedure using GraphPad Prism (version 6; GraphPad Software, Inc.). Respective Ki values are obtained by correction of the IC50 values for the respective KM value of the used substrate (see Table A for the obtained KM values of the used substrates) using the following formula:
[formula] Where the IC50 is in molar and the KM value in mM.

T1 sequence (P03952 20-390 limits assumed): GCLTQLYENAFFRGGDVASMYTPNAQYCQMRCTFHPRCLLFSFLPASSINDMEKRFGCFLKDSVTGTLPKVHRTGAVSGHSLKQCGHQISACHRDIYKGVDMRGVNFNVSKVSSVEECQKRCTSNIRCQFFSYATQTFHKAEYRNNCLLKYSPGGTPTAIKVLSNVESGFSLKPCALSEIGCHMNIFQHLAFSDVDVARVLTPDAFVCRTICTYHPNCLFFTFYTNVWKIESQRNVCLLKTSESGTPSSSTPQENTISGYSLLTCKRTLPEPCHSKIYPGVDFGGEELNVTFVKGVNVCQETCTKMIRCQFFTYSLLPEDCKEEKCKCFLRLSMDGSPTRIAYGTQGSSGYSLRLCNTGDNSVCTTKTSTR
T1 sequence (P03952 391-638 limits assumed): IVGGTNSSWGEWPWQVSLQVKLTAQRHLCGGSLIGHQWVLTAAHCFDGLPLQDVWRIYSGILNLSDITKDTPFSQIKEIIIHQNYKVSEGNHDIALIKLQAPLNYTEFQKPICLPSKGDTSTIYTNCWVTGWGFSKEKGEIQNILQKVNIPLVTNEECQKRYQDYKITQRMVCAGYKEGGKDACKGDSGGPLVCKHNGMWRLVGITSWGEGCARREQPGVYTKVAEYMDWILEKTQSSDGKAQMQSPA

Cc1cc(=O)oc2cc(NC(=O)[C@H](CCCNC(=N)N)NC(=O)[C@H](Cc3ccccc3)NC(=O)[C@@H]3CCCN3)ccc12 [Example I1295, H-Pro-Phe-Arg-AMC] (H-Pro-Phe-Arg-{AMC})
Km: 160 µM
